In ChEMBL document CHEMBL4627299, “Computational discovery and biological evaluation of novel inhibitors targeting histone-lysine N-methyltransferase SET7” (Bioorg Med Chem, 2020):
Active and inactive are the calls of the source. The rule behind the calls is not given here.

Tests used:
[1] = target: T1, Histone-lysine N-methyltransferase SETD7 (Homo sapiens) (UniProt Q8WTS6); test: Inhibition of human SET7 overexpressed in Escherichia coli BL21 (DE3) cells at 50 uM preincubated for 15 mins followed by addition of SAM as substrate and biotinylated Histone H3 (1-50) peptide measured after 30 mins by AlphaLISA assay relative to control
T1 sequence (whole entry): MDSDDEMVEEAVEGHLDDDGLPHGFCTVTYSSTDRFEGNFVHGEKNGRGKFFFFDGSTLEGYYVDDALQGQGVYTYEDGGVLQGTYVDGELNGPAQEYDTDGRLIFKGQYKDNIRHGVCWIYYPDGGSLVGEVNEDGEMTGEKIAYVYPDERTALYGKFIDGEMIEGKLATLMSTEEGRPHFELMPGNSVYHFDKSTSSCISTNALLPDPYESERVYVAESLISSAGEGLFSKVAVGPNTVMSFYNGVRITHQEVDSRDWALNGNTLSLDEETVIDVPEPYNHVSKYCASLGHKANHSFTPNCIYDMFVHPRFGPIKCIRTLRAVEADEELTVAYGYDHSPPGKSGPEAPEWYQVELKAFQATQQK

[2] = target: T1, Histone-lysine N-methyltransferase SETD7 (Homo sapiens); test: Inhibition of human SET7 overexpressed in Escherichia coli BL21 (DE3) cells at 25 uM preincubated for 15 mins followed by addition of SAM as substrate and biotinylated Histone H3 (1-50) peptide measured after 30 mins by AlphaLISA assay relative to control
[3] = target: T1, Histone-lysine N-methyltransferase SETD7 (Homo sapiens); test: Inhibition of human SET7 overexpressed in Escherichia coli BL21 (DE3) cells at 12.5 uM preincubated for 15 mins followed by addition of SAM as substrate and biotinylated Histone H3 (1-50) peptide measured after 30 mins by AlphaLISA assay relative to control
[4] = target: T2, Histone-lysine N-methyltransferase SETD7 (Homo sapiens, UniProt Q8WTS6); test: Inhibition of human SET7 overexpressed in Escherichia coli BL21 (DE3) cells preincubated for 15 mins followed by addition of SAM as substrate and biotinylated Histone H3 (1-50) peptide measured after 30 mins by AlphaLISA assay relative to control
T2 sequence (Q8WTS6 whole entry): T1 sequence (whole entry)

[5] = target: T3, Histone-lysine N-methyltransferase EZH1 (Homo sapiens, UniProt Q92800); test: Inhibition of Ezh1 (unknown origin) preincubated for 15 mins followed by addition of substrate measured after 1 hr by AlphaLISA assay
T3 sequence (Q92800 whole entry): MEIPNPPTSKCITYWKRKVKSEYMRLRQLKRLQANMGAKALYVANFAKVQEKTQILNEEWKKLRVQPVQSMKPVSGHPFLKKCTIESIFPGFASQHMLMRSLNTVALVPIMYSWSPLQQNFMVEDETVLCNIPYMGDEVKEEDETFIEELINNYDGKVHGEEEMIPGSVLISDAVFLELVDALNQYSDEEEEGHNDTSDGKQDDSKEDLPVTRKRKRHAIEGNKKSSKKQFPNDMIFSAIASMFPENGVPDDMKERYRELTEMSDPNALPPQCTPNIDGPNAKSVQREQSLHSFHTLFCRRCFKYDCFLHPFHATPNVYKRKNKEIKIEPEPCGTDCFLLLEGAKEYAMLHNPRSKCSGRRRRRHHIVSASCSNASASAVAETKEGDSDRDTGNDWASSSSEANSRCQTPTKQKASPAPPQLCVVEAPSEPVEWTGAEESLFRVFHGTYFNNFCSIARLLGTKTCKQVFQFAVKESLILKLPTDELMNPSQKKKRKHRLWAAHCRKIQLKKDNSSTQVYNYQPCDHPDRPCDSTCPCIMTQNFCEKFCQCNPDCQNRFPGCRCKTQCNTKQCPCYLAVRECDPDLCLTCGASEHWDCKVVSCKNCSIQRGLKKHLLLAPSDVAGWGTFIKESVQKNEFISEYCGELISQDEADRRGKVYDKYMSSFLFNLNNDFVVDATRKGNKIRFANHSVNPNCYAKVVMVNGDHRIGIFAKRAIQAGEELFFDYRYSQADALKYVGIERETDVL

[6] = target: T4, Histone-lysine N-methyltransferase SMYD3 (Homo sapiens, UniProt Q9H7B4); test: Inhibition of SMYD3 (unknown origin) preincubated for 15 mins followed by addition of [3H]-SAM as substrate and peptide solution after 240 mins cold SAM was added measured after 1 hr by radioisotope assay
T4 sequence (Q9H7B4 whole entry): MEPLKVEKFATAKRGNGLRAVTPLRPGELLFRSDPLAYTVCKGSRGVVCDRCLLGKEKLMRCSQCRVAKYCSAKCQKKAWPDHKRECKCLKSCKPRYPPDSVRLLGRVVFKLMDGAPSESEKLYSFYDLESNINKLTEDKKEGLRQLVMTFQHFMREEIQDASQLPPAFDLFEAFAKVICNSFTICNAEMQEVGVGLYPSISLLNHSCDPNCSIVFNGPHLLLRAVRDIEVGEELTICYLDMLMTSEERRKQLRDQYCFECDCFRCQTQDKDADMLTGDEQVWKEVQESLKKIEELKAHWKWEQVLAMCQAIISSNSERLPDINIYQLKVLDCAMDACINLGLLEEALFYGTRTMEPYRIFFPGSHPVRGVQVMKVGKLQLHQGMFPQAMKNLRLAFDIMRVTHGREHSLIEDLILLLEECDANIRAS

[7] = target: Histone-lysine N-methyltransferase 2A (Homo sapiens, UniProt Q03164); test: Inhibition of MLL1 (unknown origin) preincubated for 15 mins followed by addition of substrate measured after 1 hr by AlphaLISA assay
Chain of Histone-lysine N-methyltransferase 2A (Q03164 1-2718 limits assumed): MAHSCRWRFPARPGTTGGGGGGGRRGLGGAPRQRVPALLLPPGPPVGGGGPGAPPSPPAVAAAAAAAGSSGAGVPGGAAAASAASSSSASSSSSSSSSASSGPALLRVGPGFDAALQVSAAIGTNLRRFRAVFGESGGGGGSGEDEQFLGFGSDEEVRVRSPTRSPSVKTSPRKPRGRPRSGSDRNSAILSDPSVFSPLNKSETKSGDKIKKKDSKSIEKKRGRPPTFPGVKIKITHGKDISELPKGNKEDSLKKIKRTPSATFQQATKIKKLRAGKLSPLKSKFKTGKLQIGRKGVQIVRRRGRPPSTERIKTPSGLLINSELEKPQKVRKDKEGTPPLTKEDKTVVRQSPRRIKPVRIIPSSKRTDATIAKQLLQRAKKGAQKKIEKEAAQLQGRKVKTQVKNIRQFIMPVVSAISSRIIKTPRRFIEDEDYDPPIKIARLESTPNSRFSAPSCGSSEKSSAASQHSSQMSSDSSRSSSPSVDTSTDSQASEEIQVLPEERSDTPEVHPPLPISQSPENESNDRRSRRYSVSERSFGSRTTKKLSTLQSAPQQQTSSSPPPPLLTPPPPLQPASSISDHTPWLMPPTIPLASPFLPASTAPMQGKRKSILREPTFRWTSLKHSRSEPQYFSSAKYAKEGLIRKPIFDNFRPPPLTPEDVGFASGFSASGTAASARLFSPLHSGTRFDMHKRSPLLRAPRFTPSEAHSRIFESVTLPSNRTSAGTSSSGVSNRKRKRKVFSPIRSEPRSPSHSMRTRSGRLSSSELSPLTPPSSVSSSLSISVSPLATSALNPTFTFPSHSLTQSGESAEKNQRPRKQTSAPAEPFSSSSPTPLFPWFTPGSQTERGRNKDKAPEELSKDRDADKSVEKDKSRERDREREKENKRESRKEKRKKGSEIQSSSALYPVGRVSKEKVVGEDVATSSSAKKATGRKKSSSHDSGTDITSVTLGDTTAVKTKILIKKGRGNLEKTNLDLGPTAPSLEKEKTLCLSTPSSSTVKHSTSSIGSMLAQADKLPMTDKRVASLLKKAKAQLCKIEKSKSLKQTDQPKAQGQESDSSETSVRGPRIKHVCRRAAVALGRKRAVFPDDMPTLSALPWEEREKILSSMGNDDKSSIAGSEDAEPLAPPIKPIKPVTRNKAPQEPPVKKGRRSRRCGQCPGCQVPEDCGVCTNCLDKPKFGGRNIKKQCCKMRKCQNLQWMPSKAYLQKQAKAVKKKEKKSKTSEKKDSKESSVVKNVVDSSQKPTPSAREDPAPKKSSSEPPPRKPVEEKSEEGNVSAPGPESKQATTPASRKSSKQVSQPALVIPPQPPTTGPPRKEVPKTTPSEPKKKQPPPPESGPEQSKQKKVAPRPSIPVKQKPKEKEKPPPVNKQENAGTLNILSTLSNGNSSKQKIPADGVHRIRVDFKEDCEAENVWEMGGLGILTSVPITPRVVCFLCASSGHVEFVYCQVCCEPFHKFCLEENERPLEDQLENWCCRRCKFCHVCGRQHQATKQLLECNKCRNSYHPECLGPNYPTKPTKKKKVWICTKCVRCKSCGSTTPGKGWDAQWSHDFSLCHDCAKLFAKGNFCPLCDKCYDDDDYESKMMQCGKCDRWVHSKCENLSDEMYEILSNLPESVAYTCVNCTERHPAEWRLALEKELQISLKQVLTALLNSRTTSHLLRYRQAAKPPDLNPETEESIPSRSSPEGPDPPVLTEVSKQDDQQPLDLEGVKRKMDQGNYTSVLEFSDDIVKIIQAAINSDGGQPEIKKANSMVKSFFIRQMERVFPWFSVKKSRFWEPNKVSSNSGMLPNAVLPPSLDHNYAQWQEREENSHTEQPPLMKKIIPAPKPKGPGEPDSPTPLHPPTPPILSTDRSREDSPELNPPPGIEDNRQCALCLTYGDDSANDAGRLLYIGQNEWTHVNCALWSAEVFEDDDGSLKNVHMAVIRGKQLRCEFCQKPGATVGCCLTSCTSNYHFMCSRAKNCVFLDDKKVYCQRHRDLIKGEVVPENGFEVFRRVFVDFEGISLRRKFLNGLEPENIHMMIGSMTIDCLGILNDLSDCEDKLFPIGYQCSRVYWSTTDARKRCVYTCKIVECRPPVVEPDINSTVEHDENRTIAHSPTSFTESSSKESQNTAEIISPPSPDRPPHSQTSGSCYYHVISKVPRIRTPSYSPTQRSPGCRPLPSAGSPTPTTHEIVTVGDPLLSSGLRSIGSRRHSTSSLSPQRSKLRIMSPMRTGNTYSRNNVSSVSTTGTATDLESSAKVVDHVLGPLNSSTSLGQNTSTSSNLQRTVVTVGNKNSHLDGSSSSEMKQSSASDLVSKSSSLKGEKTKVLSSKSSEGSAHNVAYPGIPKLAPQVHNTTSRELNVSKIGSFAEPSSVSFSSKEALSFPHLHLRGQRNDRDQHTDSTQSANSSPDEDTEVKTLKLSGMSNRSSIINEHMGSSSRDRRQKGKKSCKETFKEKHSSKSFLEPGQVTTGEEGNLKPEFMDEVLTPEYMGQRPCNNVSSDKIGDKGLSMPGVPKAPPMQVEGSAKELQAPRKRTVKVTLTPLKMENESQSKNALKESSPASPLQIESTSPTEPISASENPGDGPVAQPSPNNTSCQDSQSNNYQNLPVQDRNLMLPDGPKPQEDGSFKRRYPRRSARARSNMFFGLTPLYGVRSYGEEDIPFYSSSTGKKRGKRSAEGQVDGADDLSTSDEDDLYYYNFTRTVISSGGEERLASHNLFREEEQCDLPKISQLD
Chain of Histone-lysine N-methyltransferase 2A (Q03164 2719-3969 limits assumed): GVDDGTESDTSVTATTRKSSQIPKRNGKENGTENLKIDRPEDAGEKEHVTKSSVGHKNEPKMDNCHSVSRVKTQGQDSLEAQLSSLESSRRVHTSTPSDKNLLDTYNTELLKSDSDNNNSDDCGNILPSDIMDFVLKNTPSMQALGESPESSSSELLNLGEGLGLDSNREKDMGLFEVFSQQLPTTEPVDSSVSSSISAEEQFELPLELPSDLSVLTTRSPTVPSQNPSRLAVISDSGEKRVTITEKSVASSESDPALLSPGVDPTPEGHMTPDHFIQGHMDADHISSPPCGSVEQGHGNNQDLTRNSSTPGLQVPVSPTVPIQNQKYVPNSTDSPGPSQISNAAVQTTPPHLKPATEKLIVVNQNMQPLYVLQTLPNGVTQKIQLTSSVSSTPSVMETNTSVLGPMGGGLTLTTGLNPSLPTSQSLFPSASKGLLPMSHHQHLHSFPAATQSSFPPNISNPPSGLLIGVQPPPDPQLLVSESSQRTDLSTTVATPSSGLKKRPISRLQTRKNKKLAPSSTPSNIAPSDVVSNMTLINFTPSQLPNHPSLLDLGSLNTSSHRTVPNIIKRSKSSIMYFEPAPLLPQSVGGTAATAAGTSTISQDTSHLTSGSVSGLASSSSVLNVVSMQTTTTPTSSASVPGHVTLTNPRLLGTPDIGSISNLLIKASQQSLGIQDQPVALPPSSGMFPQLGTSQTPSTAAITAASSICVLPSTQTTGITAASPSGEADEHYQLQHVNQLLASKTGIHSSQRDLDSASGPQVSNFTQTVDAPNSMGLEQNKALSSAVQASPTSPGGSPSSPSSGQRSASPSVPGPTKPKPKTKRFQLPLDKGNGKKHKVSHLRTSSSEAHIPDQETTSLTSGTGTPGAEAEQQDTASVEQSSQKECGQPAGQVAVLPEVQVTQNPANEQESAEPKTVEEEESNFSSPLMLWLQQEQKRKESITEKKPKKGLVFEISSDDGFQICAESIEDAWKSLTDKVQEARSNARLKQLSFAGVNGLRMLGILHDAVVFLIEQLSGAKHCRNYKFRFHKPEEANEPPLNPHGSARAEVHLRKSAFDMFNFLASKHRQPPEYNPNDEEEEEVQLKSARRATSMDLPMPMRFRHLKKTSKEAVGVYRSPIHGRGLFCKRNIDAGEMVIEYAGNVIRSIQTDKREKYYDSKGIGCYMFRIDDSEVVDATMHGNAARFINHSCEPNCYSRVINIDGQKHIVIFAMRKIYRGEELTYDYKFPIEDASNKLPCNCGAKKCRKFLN

[8] = target: T5, Histone-lysine N-methyltransferase NSD2 (Homo sapiens, UniProt O96028); test: Inhibition of NSD2 (unknown origin) preincubated for 15 mins followed by addition of [3H]-SAM as substrate and peptide solution after 240 mins cold SAM was added measured by radioisotope assay
T5 sequence (O96028 whole entry): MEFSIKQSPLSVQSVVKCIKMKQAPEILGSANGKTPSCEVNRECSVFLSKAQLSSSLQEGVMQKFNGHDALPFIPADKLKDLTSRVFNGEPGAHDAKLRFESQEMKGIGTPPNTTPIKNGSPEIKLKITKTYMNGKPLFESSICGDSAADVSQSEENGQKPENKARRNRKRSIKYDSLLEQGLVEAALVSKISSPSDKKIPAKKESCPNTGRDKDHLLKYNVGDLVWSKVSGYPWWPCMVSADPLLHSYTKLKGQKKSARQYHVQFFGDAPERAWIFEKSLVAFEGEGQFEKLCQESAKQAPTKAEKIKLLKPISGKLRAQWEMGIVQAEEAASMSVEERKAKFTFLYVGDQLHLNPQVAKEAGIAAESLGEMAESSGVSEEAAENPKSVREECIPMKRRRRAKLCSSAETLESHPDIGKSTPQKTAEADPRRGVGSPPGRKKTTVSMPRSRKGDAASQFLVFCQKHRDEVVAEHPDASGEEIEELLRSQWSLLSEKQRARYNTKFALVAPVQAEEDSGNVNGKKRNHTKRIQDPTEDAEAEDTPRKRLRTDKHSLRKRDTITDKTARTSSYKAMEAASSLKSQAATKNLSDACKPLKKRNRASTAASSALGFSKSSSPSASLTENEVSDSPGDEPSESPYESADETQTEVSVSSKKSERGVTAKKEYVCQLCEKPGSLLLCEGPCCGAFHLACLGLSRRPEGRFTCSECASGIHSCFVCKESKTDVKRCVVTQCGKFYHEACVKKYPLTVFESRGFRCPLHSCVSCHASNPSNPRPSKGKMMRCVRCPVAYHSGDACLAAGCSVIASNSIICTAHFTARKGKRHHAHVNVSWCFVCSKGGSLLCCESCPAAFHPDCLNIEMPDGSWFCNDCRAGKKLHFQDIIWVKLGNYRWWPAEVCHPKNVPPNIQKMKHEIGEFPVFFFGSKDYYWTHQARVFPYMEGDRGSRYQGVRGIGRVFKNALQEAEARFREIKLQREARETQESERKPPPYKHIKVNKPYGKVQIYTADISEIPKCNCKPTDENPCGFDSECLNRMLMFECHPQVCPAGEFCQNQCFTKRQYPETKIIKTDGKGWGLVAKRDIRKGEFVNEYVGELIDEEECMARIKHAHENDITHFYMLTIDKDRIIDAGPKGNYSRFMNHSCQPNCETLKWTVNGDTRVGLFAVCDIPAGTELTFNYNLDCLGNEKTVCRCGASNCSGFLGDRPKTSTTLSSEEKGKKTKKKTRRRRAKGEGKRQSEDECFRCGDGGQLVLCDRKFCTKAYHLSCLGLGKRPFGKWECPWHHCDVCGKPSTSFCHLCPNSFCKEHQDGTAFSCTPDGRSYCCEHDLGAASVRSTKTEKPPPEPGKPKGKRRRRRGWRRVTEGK

MDA-MB-231 = test: Antiproliferation activity against human MDA-MB-231 cells assessed as reduction in cell viability measured by Cell-titer-Glo assay; format: functional, cell-based
A549 = test: Antiproliferation activity against human A549 cells assessed as reduction in cell viability measured by Cell-titer-Glo assay; format: functional, cell-based
HeLa = test: Antiproliferation activity against human HeLa cells assessed as reduction in cell viability measured by Cell-titer-Glo assay; format: functional, cell-based
MCF7 = test: Antiproliferation activity against human MCF7 cells assessed as reduction in cell viability measured by Cell-titer-Glo assay; format: functional, cell-based
MV4-11 = test: Antiproliferation activity against human MV4-11 cells assessed as reduction in cell viability measured by Cell-titer-Glo assay; format: functional, cell-based
Homo sapiens = species: Homo sapiens; test: Antiproliferation activity against human UMCHOR1 cells assessed as reduction in cell viability measured by Cell-titer-Glo assay; format: functional, cell-based

SMILES | inhibition [1] [%] | inhibition [2] [%] | inhibition [3] [%] | IC50 [4] [µM] | other results
Cc1cc([N+](=O)[O-])ccc1NS(=O)(=O)c1cc(Cl)ccc1Cl | 26 | 26 | 17 |  | 
CCN1CCCC1CNC(=O)c1cc(S(=O)(=O)CC)c(N)cc1OC (centres undefined) | 3 | 14 | 14 |  | 
N[C@@H](CC(=O)N1CCn2c(nnc2C(F)(F)F)C1)Cc1cc(F)c(F)cc1F |  | 6 |  |  | 
CCn1cc(C(=O)O)c(=O)c2cc(F)c(N3CCNC(C)C3)c(F)c21 (centres undefined) | 14 | 23 | 19 |  | 
Cc1oncc1C(=O)Nc1ccc(C(F)(F)F)cc1 |  | 4 |  |  | 
O=C(Nc1c(Cl)cncc1Cl)c1ccc(OC(F)F)c(OCC2CC2)c1 | 23 | 19 | 27 |  | 
O=c1c(O)c(-c2ccc(O)cc2O)oc2cc(O)cc(O)c12 [MORIN] | 87 | 62 | 40 | 6.02 | 
O=c1cc(-c2ccc(O)c(O)c2)oc2cc(O)cc(O)c12 [LUTEOLIN] |  |  |  | 6.08 | 
O=c1c(-c2ccc(O)cc2)coc2cc(O)ccc12 | 14 | 6 | 5 |  | 
O=c1c(O)c(-c2ccc(O)cc2)oc2cc(O)cc(O)c12 [KAEMPFEROL] |  |  |  | > 200 | 

The next lines start with results.

inhibition [1] [%] | inhibition [2] [%] | inhibition [3] [%] | IC50 [4] [µM] | SMILES | other results
18 | 11 | 9 |  | COc1cc(O)c(CC=C(C)C)c(O)c1C(=O)/C=C/c1ccc(O)cc1 | 
24 | 19 | 18 |  | CC(C)C[C@H](NC(=O)[C@H](Cc1ccccc1)NC(=O)c1cnccn1)B(O)O | 
39 | 28 | 17 |  | C=CC(C)(C)c1cc(/C=C/C(=O)c2ccc(O)cc2)c(OC)cc1O | 
10 | 32 | 17 |  | COC(=O)[C@H](Cc1ccccc1)NC(=O)[C@@H](N)CC(=O)O | 
 | 4 | 3 |  | CC(C)=CCC1=C(O)C(=O)c2ccccc2C1=O | 
23 | 29 | 18 |  | Cc1cnc(NC(=O)C2=C(O)c3ccccc3S(=O)(=O)N2C)s1 | 
4 | 10 | 19 |  | COc1c(O)cc(O)c2c(=O)cc(-c3ccccc3)oc12 | 
 |  |  | > 200 | COc1ccc(-c2oc3cc(O)cc(O)c3c(=O)c2O)cc1 [KAEMPFERIDE] | 
90 | 72 | 50 | 21.6 | CC(C)=CC[C@@H](O)C1=CC(=O)c2c(O)ccc(O)c2C1=O [SHIKONIN] | 
 |  |  | 1.96 | O=c1cc(-c2ccc(O)cc2)oc2cc(O)c(O)c(O)c12 [SCUTELLAREIN] | IC50 [5]: 8.77 µM; IC50 [6]: 18.2 µM; IC50 [7]: 2.92 µM; IC50 [8]: 2.65 µM; Activity (MDA-MB-231): inactive; Activity (A549): inactive; Activity (HeLa): inactive; Activity (MCF7): inactive; IC50 (MV4-11): 27.1 µM; Activity (Homo sapiens): inactive
 |  |  | > 200 | O=C1C[C@@H](c2ccc(O)c(O)c2)Oc2cc(O)cc(O)c21 [ERIODICTYOL] | 
 |  |  | > 200 | O=c1c(O)c(-c2ccccc2)oc2cc(O)cc(O)c12 [GALANGIN] | 
7 | 18 | 8 |  | O=C(N/N=C/c1ccc([N+](=O)[O-])o1)c1ccc(O)cc1 | 
